{"source": "paper PMC8523698", "about": "“Preclinical characterization of an intravenous coronavirus 3CL protease inhibitor for the potential treatment of COVID19” (Nature Communications, 2021)", "key": {"[1]": {"assay": "In vitro blood to plasma ratio", "assay_type": "in vitro ADME", "settings": "for Plasma concentration (Cp) / Whole blood concentration (Cb): human blood, substrate 1 µM"}, "[2]": {"assay": "Dog pharmacokinetic study", "settings": "for clearance / half-life / Vd: male, Beagle, dog, plasma, iv; for Vd: Vdss"}, "[3]": {"assay": "Cytotoxicity in MRC-5 cells", "settings": "human"}}, "note": "Where “and” joins values, the source holds several entries; their conditions need not be identical. Equal values may be shown once."}
{"smiles": "COc1cccc2[nH]c(C(=O)N[C@@H](CC(C)C)C(=O)N[C@@H](C[C@@H]3CCNC3=O)C(=O)COP(=O)(O)O)cc12", "note": "[PF-07304814]", "values": [{"measurement": "Measured blood partitioning / Human blood partitioning", "setting": "[1]", "result": 0.6}, {"measurement": "Plasma concentration (Cp)", "setting": "[1]; Mean", "result": 1970, "unit": "nM"}, {"measurement": "Whole blood concentration (Cb)", "setting": "[1]; Mean", "result": 1.08, "unit": "µM"}, {"measurement": "Plasma concentration (Cp)", "setting": "[1]; individual replicates", "result": "2010 nM and 2000 nM and 1900 nM and 1950 nM"}, {"measurement": "Whole blood concentration (Cb)", "setting": "[1]; individual replicates", "result": "1.11 µM and 1.06 µM and 1.1 µM"}, {"measurement": "%unchanged in urine", "setting": "[2]; dog IV, PF-07304814 […], PF-00835231 1.0mg/kg", "result": "< 0.1", "unit": "%"}, {"measurement": "Total Concn, Mean Data", "setting": "[2]; dog plasma, PF-07304814 prodrug dosed […] intravenous, time 8 h, mean, BLQ=0.1ng/mL", "result": "BLQ"}, {"measurement": "Urine Concn", "setting": "[2]; dog urine 4-8h, PF-07304814 prodrug dosed […] intravenous, individual dogs, BLQ=1ng/mL for urine", "result": "BLQ"}, {"measurement": "clearance", "setting": "[2]; CLp, dog IV (n=2, range), PF-07304814 […], PF-00835231 1.0mg/kg", "result": 517, "unit": "mL/min/kg"}, {"measurement": "half-life", "setting": "[2]; Terminal T1/2, dog IV (n=2, range), PF-07304814 […], PF-00835231 1.0mg/kg", "result": 30, "unit": "min"}, {"measurement": "Vd", "setting": "[2]; dog IV (n=2, range), PF-07304814 […], PF-00835231 1.0mg/kg", "result": 9.3, "unit": "L/kg"}, {"measurement": "clearance", "setting": "[2]; […], Clearance, Mean Data, PF-07304814 prodrug dosed […] intravenous, mean", "result": 517, "unit": "mL/min/kg"}, {"measurement": "half-life", "setting": "[2]; […], Half life, Mean Data, PF-07304814 prodrug dosed […] intravenous, mean", "result": 30.6, "unit": "min"}, {"measurement": "Vd", "setting": "[2]; […], Mean Data, PF-07304814 prodrug dosed […] intravenous, mean", "result": 9.3, "unit": "L/kg"}, {"measurement": "CC50 at 5 days", "setting": "[3]", "result": "> 100", "unit": "µM"}, {"measurement": "CC50 at 5 days", "setting": "[3]; MRC-5 cells", "result": "> 100", "unit": "µM"}, {"measurement": "CC50 at 5 days", "setting": "[3]; MRC-5 cells, with CP-100356 (efflux inhibitor) 0.5 µM", "result": "> 100", "unit": "µM"}]}
